≈ marks a conversion by molar mass, not a printed value. Where “and” joins values, the source holds several entries; their conditions need not be identical. Equal entries are not always repeated.
What was measured:
[1] = test system: HIV-1 (RF); experiment: microbe, parasite or virus in culture; assay type: cell-based; settings: for Efficacy testing, optical density of single wells: listed as R2K18001 (90I)
From the text: (§1) This assay was used to test the effectiveness of anti-HIV drug monotherapy in the established T-cell line CEM-SS infected with HIV-1RF, HIV-1IIIb, HIV-2ROD, or other cytolytic variants of HIV.
(§2) The drugs were solubilized in DMSO (dimethyl sulfoxide). […] CEM-SS cells were in logarithmic growth phase at the time of experimentation. Virus (HIV-1RF) stocks that past the necessary quality controls (killing effect on the type of cells used, limited variability, etc) were thawed and maintained on ice until required for addition.
(§3) Half-log serial dilutions of the antiviral agent or compound of the invention, H2K1001 (90i), were made in tissue culture media (RPMI 1640 without phenol red, supplemented with 10% heat inactivated fetal bovine serum, 1% L-Glutamine, 1% Pen/Strep and 50 ug/ml gentimycin). Virus, cell, drug and diluent (ethanol) controls were included for these tests. Virus was added after cells and drugs were mixed. Cell, drug, and virus containing cultures were incubated for six (6) days without additional feeding at which time the cultures were evaluated macroscopically and microscopically for cell toxicity, and the tetrazolium salt […] was added for quantitation by the colorimetric determination of formazan production (optical density).
(§4) Drug efficacy and cytotoxicity effects were determined six days after infection by the metabolic reduction of the tetrazolium salt XTT to its‘ formazan by surviving cells and was quantitated by determination of optical density at 450 nm with background subtraction at 650 nm (Tables 1-4).
(§5) The drug plate analysis reports from this assay are provided below in Tables 1-4. Calculated endpoints (EC50, etc.) were determined using Cho and Cho Median Effect Equation (Daids Virology Manual for HIV Laboratories, Compiled by The Division of Aids, National Institute of Allergy and Infectious Diseases, National Institutes of Health and Collaborating Investigators, Version January 1997).

[2] = test system: CEM-SS T-lymphoblastoid cells; experiment: Drug-induced cytotoxicity in CEM-SS cells (tetrazolium reduction); settings: for Toxicity testing, mean optical density: human, 6 days
From the text: as §1, §2, §3, §4, §5

[3] = test system: peripheral blood mononuclear cells (PBMC); experiment: Drug-induced cytotoxicity in PBMC (MTS); assay type: cell-based; settings: for Toxicity testing, mean optical density: human, 7 days
Method: Drug efficacy was determined by the production of supernatant HIV-1 p24. Drug-induced cytotoxicity was determined by the metabolic reduction of tetrazolium salts (MTS; Promega).
The antiviral drug or agent of the invention, H2K-1001 (90i), was solubilized. PBMCs, stimulated with PHA (phytohemagglutinin) for three days were employed throughout. Virus stocks (U.S. Clinical isolates) grown in PBMCs only, that past the necessary quality controls (i.e., replicate to high titer in PBMCs and meet the requirements as to genotype and phenotype) were rapidly thawed and maintained on ice until required for infection.
Virus and cell controls were included on each test plate. Virus was added after cells and drugs were mixed. Cell, drug and virus containing cultures were incubated for seven (7) days with an interim feeding at day three or four.
Supernatants were sampled at seven days for p24 determination by antigen capture ELISA. Cytotoxicity was measured by the metabolic reduction of the tetrazolium salt according to the manufacturer’s (Promega) recommendations.
The drug analysis reports from these studies are provided below in Tables 7-10. Efficacy (EC50) and viability (IC50) determinations were made using Cho and Cho Median Effect Equation, as noted above. Efficacy is expressed as the 50% effective concentration (EC50) and drug induced toxicity as the 50% inhibitory concentration (IC50).

[4] = test system: monotropic HIV-1 (macbal); experiment: Antiretroviral effect against monotropic/neurotropic HIV-1 in monocyte; assay type: cell-based; settings: monotropic HIV-1 (macbal) in monocyte
[5] = test system: gamma interferon production; experiment: Gamma interferon production in spleenocyte of mice; assay type: cell-based; settings: versus positive control PMA-Ionomycin combination
From the text: Referring again to FIG. 14, activated CD8+ cells are reported to produce high levels of gamma interferon, which may be involved in the anti-HIV-1 immune responses, contributing to both control of viral spread and concomitant lymphoid follicular lyses. […] This finding may have a far-reaching implication and relevant in the restoration of immune system competence.

SMILES: O=C(OCCOCCOC(=O)c1ccccc1)c1ccccc1 [90I, diethylene glycol dibenzoate]
- Efficacy % CC ([1]; 0.01 ug/ml): 42 % CC
- Efficacy testing, mean optical density ([1]; 0.01 ug/ml): 1.0282
- Efficacy testing, optical density of single wells ([1]; 0.01 ug/ml): 0.9892 and 1.0238 and 1.0477
- Efficacy % CC ([1]; 0.03 ug/ml): 80 % CC
- Efficacy testing, mean optical density ([1]; 0.03 ug/ml): 1.9368
- Efficacy testing, optical density of single wells ([1]; 0.03 ug/ml): 2.0839 and 1.6926 and 2.0343
- Efficacy % CC ([1]; 0.1 ug/ml): 87 % CC
- Efficacy testing, mean optical density ([1]; 0.1 ug/ml): 2.1073
- Efficacy testing, optical density of single wells ([1]; 0.1 ug/ml): 2.2196 and 2.0140 and 2.0883
- Efficacy % CC ([1]; 0.3 ug/ml): 83 % CC
- Efficacy testing, mean optical density ([1]; 0.3 ug/ml): 2.0091
- Efficacy testing, optical density of single wells ([1]; 0.3 ug/ml): 2.1099 and 1.8158 and 2.1016
- Efficacy % CC ([1]; 1 ug/ml): 84 % CC
- Efficacy testing, mean optical density ([1]; 1 ug/ml): 2.0264
- Efficacy testing, optical density of single wells ([1]; 1 ug/ml): 2.2771 and 1.9186 and 1.8914
- Efficacy % CC ([1]; 3 ug/ml): 84 % CC
- Efficacy testing, mean optical density ([1]; 3 ug/ml): 2.0459
- Efficacy testing, optical density of single wells ([1]; 3 ug/ml): 2.2499 and 1.9311 and 1.9576
- Efficacy % CC ([1]; 10 ug/ml): 82 % CC
- Efficacy testing, mean optical density ([1]; 10 ug/ml): 1.9797
- Efficacy testing, optical density of single wells ([1]; 10 ug/ml): 2.0385 and 2.0038 and 1.8968
- Efficacy % CC ([1]; 33 ug/ml): 86 % CC
- Efficacy testing, mean optical density ([1]; 33 ug/ml): 2.0805
- Efficacy testing, optical density of single wells ([1]; 33 ug/ml): 2.1945 and 1.9560 and 2.0909
- Efficacy % CC ([1]; 100 ug/ml): 88 % CC
- Efficacy testing, mean optical density ([1]; 100 ug/ml): 2.1221
- Efficacy testing, optical density of single wells ([1]; 100 ug/ml): 2.2450 and 1.9588 and 2.1625
- therapeutic index (TI=IC50/EC50) ([1]; HIV-1 RF in CEM-SS): greater than 5000
- EC50 ([1]; Human immunodeficiency virus 1, CEM-SS, read-out: 50% effective concentration (EC50), RF laboratory strain of HIV-1 in CEM-SS): ~0.02 µg/mL (≈ 0.0636 µM)
- Toxicity % CC ([2]; 0.01 ug/ml): 100 % CC
- Toxicity % CC ([2]; 0.03 ug/ml): 103 % CC
- Toxicity % CC ([2]; 0.1 ug/ml): 104 % CC
- Toxicity % CC ([2]; 0.3 ug/ml): 100 % CC
- Toxicity % CC ([2]; 1 ug/ml): 100 % CC
- Toxicity % CC ([2]; 3 ug/ml): 99 % CC
- Toxicity % CC ([2]; 10 ug/ml): 93 % CC
- Toxicity % CC ([2]; 33 ug/ml): 94 % CC
- Toxicity testing, optical density of single wells ([2]; 33 ug/ml, listed as H2K1001 (90I)): 2.3330
- Toxicity % CC ([2]; 100 ug/ml): 106 % CC
- 50% inhibitory concentration, IC50 (drug induced toxicity) ([2]; CEM-SS, high test concentration 100 ug/ml): greater than 100 ug/ml
- IC50 ([2]; Homo sapiens, CEM-SS): > 100 µg/mL
- Toxicity testing, mean optical density ([2]; 0.01 ug/ml): 2.4317
- Toxicity testing, mean optical density ([2]; 0.03 ug/ml): 2.4969
- Toxicity testing, mean optical density ([2]; 0.1 ug/ml): 2.5149
- Toxicity testing, mean optical density ([2]; 0.3 ug/ml): 2.4130
- Toxicity testing, mean optical density ([2]; 1 ug/ml): 2.4177
- Toxicity testing, mean optical density ([2]; 3 ug/ml): 2.4007
- Toxicity testing, mean optical density ([2]; 33 ug/ml): 2.2879
- Toxicity testing, mean optical density ([2]; 100 ug/ml): 2.5604
- Toxicity % CC ([3]; 0.01 ug/ml): 94 % CC
- Toxicity % CC ([3]; 0.03 ug/ml): 103 % CC
- Toxicity % CC ([3]; 0.10 ug/ml): 91 % CC
- Toxicity % CC ([3]; 0.33 ug/ml): 94 % CC
- Toxicity % CC ([3]; 1 ug/ml): 97 % CC
- Toxicity % CC ([3]; 3 ug/ml (3.2 in Table 11)): 94 % CC
- Toxicity % CC ([3]; 10 ug/ml): 100 % CC
- Toxicity % CC ([3]; 32 ug/ml): 104 % CC
- Toxicity % CC ([3]; 100 ug/ml): 111 % CC
- IC50 ([3]; PBMC, read-out: IC50 (drug induced toxicity)): > 100 µg/mL
- IC50 (drug induced toxicity) ([3]; PBMC, unit not given): greater than 100
- Toxicity testing, mean optical density ([3]; 0.01 ug/ml): 1.3114
- Toxicity testing, mean optical density ([3]; 0.03 ug/ml): 1.4316
- Toxicity testing, mean optical density ([3]; 0.1 ug/ml): 1.2654
- Toxicity testing, mean optical density ([3]; 0.33 ug/ml): 1.2992
- Toxicity testing, mean optical density ([3]; 1 ug/ml): 1.3474
- Toxicity testing, mean optical density ([3]; 3 ug/ml): 1.3102
- Toxicity testing, mean optical density ([3]; 10 ug/ml): 1.3987
- Toxicity testing, mean optical density ([3]; 32 ug/ml): 1.4463
- Toxicity testing, mean optical density ([3]; 100 ug/ml): 1.5431
- EC50 ([4]; Human immunodeficiency virus 1, read-out: 50% effective concentration (EC50)): 0.03 µg/mL (≈ 0.0954 µM)
- TI [4]: greater than 4000
- amount of gamma interferon produced [5]: equivalent to that of the positive control
